According to PMC10272112 (Nature Communications, 2023):
“And” between values parts separate entries of the source, which are not always exact repeats. Equal entries are not always repeated.

Legend:
HDAC1,2,3,6,8 = assay: HDAC-Glo assay (panel); type: biochemical, human
Method: (§1) To validate the inhibition of HDACs by LA and LM and elaborate on the structure-activity relationship (SAR) of enantiomers as well as oxidized versus reduced forms of the molecules, we performed enzyme activity assays for recombinant HDAC1,2,3,6,8 as well as FRET-based binding assay for recombinant HDAC10.
(§2) The experiments were performed according to ref. [48]. […] Drug dosing was performed with a D300e Digital Dispenser (Tecan). HDACs (7 ng/mL for HDAC1, 25 ng/mL for HDAC2, 200 ng/mL for HDAC3/Ncor2 complex, 100 ng/mL for HDAC6, 200 ng/mL for HDAC8) and inhibitors were incubated together at room temperature (RT) for 30 min. After the addition of the HDAC-Glo™ I/II reagent, plates were shaken (800 rpm orbital shaker, 30 s), centrifuged (300 g, 1 min), and incubated at RT for 30 min. Luminescence was detected with a CLARIOstar (BMG Labtech) plate reader.

HDAC2 = HDAC2 (Homo sapiens, UniProt Q92769); assay: HDAC-Glo assay; type: biochemical; parameters: purchased BPS Bioscience 50002; conditions: for HDAC2 relative activity: sheet S2b
Method: as §1, §2

HDAC8 = biological target: T1, HDAC8 (Homo sapiens, UniProt Q9BY41); assay: HDAC-Glo assay; type: biochemical; parameters: purchased BPS Bioscience 50008; conditions: read-out: log EC50 from dose-dependent HDAC inhibition curves (converted)
T1 sequence (Q9BY41 1-377): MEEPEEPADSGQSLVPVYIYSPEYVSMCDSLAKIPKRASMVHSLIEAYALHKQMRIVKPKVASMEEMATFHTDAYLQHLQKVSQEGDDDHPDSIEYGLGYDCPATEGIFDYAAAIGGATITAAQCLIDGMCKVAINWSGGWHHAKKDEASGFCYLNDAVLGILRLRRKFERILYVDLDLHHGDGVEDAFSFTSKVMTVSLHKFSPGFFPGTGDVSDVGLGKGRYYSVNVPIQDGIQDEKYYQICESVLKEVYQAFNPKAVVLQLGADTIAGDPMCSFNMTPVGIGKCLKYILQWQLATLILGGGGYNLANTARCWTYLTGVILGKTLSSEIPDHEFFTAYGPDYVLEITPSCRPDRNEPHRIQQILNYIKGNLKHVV
Method: as §1, §2

HDAC1 = HDAC1 (Homo sapiens, UniProt Q13547); assay: HDAC-Glo assay; type: biochemical; parameters: purchased BPS Bioscience 50051
Method: as §1, §2

[1] = 0.5 M TCEP, log10 M -3.30103, 3 technical replicates
[2] = 0.5 M TCEP, log10 M -3.82945, 3 technical replicates
[3] = 0.5 M TCEP, log10 M -4.35788, 3 technical replicates
[4] = 0.5 M TCEP, log10 M -4.88629, 3 technical replicates
[5] = 0.5 M TCEP, log10 M -5.41477, 3 technical replicates
[6] = 0.5 M TCEP, log10 M -5.94309, 3 technical replicates
[7] = 0.5 M TCEP, log10 M -6.47756, 3 technical replicates
[8] = 0.5 M TCEP, log10 M -6.87615, 3 technical replicates
[9] = no TCEP, log10 M -3.30103, 3 technical replicates
[10] = no TCEP, log10 M -3.82945, 3 technical replicates
[11] = no TCEP, log10 M -4.35788, 3 technical replicates
[12] = no TCEP, log10 M -4.88629, 3 technical replicates
[13] = no TCEP, log10 M -5.41477, 3 technical replicates
[14] = no TCEP, log10 M -5.94309, 3 technical replicates
[15] = no TCEP, log10 M -6.47756, 3 technical replicates
[16] = no TCEP, log10 M -6.87615, 3 technical replicates
[17] = read-out: log EC50 from dose-dependent HDAC inhibition curves (converted)

HDAC2, sequence (Q92769 whole entry): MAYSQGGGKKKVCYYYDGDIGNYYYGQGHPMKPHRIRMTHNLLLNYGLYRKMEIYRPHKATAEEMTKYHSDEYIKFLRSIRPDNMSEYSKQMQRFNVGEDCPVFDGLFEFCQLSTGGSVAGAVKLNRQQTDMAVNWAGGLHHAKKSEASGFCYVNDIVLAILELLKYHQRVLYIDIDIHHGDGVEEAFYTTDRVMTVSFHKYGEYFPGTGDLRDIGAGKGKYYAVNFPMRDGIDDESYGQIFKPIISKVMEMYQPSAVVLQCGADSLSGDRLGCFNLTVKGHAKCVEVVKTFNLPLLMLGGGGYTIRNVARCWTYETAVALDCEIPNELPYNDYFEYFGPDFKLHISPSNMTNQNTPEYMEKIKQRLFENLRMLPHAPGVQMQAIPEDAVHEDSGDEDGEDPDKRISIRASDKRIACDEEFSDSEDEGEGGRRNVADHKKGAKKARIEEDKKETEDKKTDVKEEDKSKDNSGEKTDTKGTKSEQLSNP
HDAC1, sequence (Q13547 whole entry): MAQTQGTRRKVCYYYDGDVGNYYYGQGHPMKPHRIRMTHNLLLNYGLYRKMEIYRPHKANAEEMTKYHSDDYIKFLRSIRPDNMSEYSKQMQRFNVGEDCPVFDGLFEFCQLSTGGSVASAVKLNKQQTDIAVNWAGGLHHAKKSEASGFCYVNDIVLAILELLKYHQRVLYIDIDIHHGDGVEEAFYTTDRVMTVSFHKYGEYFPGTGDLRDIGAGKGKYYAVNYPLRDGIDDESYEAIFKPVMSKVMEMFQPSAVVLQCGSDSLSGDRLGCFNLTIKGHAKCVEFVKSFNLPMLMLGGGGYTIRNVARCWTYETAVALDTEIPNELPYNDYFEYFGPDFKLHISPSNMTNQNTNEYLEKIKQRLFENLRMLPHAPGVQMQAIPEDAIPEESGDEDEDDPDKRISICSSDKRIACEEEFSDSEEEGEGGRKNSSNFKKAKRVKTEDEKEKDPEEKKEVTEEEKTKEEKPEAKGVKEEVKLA

With `O=C(O)CCCCC1CCSS1` (racemic) [(R/S)-LA, (R/S)-lipoic acid] the “HDAC inhibition by the oxidized form” value (HDAC1,2,3,6,8; absence of TCEP) was “diminished activity”, the EC50 (HDAC1,2,3,6,8; with TCEP, range over HDAC1,2,3,6,8, read-out: EC50 of HDAC inhibition, reduced form) was 1 to 44 µM and the “HDAC enzymatic activity (normalized luminescence)” value (HDAC2; [1]) was 4.517 and 4.579 and 4.669. The “HDAC enzymatic activity (normalized luminescence)” value (HDAC2; [2]) was 14.6838 and 15.1597 and 14.9231, the “HDAC enzymatic activity (normalized luminescence)” value (HDAC2; [3]) was 37.5127 and 37.9281 and 38.3803 and the “HDAC enzymatic activity (normalized luminescence)” value (HDAC2; [4]) was 65.6665 and 63.7639 and 65.7588. The “HDAC enzymatic activity (normalized luminescence)” value (HDAC2; [5]) was 83.5292 and 85.2785 and 86.439, the “HDAC enzymatic activity (normalized luminescence)” value (HDAC2; [6]) was 90.5846 and 91.5425 and 93.8157 and the “HDAC enzymatic activity (normalized luminescence)” value (HDAC2; [7]) was 95.0155 and 95.0012 and 98.6939. The “HDAC enzymatic activity (normalized luminescence)” value (HDAC2; [8]) was 97.7664 and 98.3233 and 101.153, the “HDAC enzymatic activity (normalized luminescence)” value (HDAC2; [9]) was 44.2753 and 42.6833 and 42.8281 and the “HDAC enzymatic activity (normalized luminescence)” value (HDAC2; [10]) was 74.0269 and 74.0487 and 74.0611. For the same compound, the “HDAC enzymatic activity (normalized luminescence)” value (HDAC2; [11]) was 91.4647 and 91.3223 and 92.1121, the “HDAC enzymatic activity (normalized luminescence)” value (HDAC2; [12]) was 96.4611 and 96.3058 and 97.9917 and the “HDAC enzymatic activity (normalized luminescence)” value (HDAC2; [13]) was 98.5234 and 99.2037 and 100.016. The “HDAC enzymatic activity (normalized luminescence)” value (HDAC2; [14]) was 96.9658 and 96.4307 and 98.1115, the “HDAC enzymatic activity (normalized luminescence)” value (HDAC2; [15]) was 98.5723 and 98.9021 and 101.472 and the “HDAC enzymatic activity (normalized luminescence)” value (HDAC2; [16]) was 102.033 and 100.085 and 101.747. The EC50 (HDAC2; [17]) was 27.9 µM, the HDAC2 relative activity (HDAC2; log conc -3.30103) was 1.632 and 1.608 and 1.6104 and the HDAC2 relative activity (HDAC2; log conc -3.82945) was 4.377 and 4.239 and 4.397. The HDAC2 relative activity (HDAC2; log conc -4.35788) was 14.1348 and 14.1034 and 14.0027, the HDAC2 relative activity (HDAC2; log conc -4.88629) was 32.6794 and 32.1097 and 32.0348 and the HDAC2 relative activity (HDAC2; log conc -5.41477) was 62.7872 and 63.5079 and 63.5078. The HDAC2 relative activity (HDAC2; log conc -5.94309) was 83.5078 and 83.413 and 83.6174, the HDAC2 relative activity (HDAC2; log conc -6.47756) was 91.2192 and 90.5813 and 91.6447 and the HDAC2 relative activity (HDAC2; log conc -6.87615) was 99.2152 and 97.4208 and 97.0893. For the same compound, the EC50 (HDAC8) was 22.3 µM, the “HDAC enzymatic activity (normalized luminescence)” value (HDAC1; [1]) was 2.253 and 2.122 and 2.222 and the “raw luminescence signal, HDAC1 inhibition” value (HDAC1; [1]) was 9033 and 8544 and 8916. The “HDAC enzymatic activity (normalized luminescence)” value (HDAC1; [2]) was 6.603 and 6.6 and 6.7561, the “raw luminescence signal, HDAC1 inhibition” value (HDAC1; [2]) was 25221 and 25211 and 25792 and the “HDAC enzymatic activity (normalized luminescence)” value (HDAC1; [3]) was 20.3513 and 20.4988 and 20.2352. For the same compound, the “raw luminescence signal, HDAC1 inhibition” value (HDAC1; [3]) was 76389 and 76938 and 75957, the “HDAC enzymatic activity (normalized luminescence)” value (HDAC1; [4]) was 44.8545 and 45.009 and 46.4019 and the “raw luminescence signal, HDAC1 inhibition” value (HDAC1; [4]) was 167582 and 168157 and 173341. The “HDAC enzymatic activity (normalized luminescence)” value (HDAC1; [5]) was 75.7737 and 78.1543 and 78.9575, the “raw luminescence signal, HDAC1 inhibition” value (HDAC1; [5]) was 282653 and 291513 and 294502 and the “HDAC enzymatic activity (normalized luminescence)” value (HDAC1; [6]) was 89.586 and 92.205 and 92.7553. For the same compound, the “raw luminescence signal, HDAC1 inhibition” value (HDAC1; [6]) was 334058 and 343805 and 345853, the “HDAC enzymatic activity (normalized luminescence)” value (HDAC1; [7]) was 95.6344 and 96.1277 and 99.0353 and the “raw luminescence signal, HDAC1 inhibition” value (HDAC1; [7]) was 356568 and 358404 and 369225. The “HDAC enzymatic activity (normalized luminescence)” value (HDAC1; [8]) was 97.1294 and 100.284 and 101.314, the “raw luminescence signal, HDAC1 inhibition” value (HDAC1; [8]) was 362132 and 373872 and 377707 and the “HDAC enzymatic activity (normalized luminescence)” value (HDAC1; [9]) was 34.5758 and 34.0329 and 33.4507. For the same compound, the “HDAC enzymatic activity (normalized luminescence)” value (HDAC1; [10]) was 69.9436 and 70.5688 and 71.7678, the “HDAC enzymatic activity (normalized luminescence)” value (HDAC1; [11]) was 91.6791 and 90.2694 and 91.9437 and the “HDAC enzymatic activity (normalized luminescence)” value (HDAC1; [12]) was 97.2441 and 96.7873 and 98.245. The “HDAC enzymatic activity (normalized luminescence)” value (HDAC1; [13]) was 102.844 and 103.267 and 105.666, the “HDAC enzymatic activity (normalized luminescence)” value (HDAC1; [14]) was 103.58 and 104.044 and 104.328 and the “HDAC enzymatic activity (normalized luminescence)” value (HDAC1; [15]) was 103.305 and 103.257 and 103.904. For the same compound, the “HDAC enzymatic activity (normalized luminescence)” value (HDAC1; [16]) was 102.627 and 100.722 and 100.875, the EC50 (HDAC1; [17]) was 11.4 µM and the HDAC1 relative activity (HDAC1; sheet S2b, log conc -3.30103) was 1.283 and 1.298 and 1.278. For the same compound, the HDAC1 relative activity (HDAC1; sheet S2b, log conc -3.82945) was 3.514 and 3.391 and 3.355, the HDAC1 relative activity (HDAC1; sheet S2b, log conc -4.35788) was 11.0684 and 11.0093 and 10.6578 and the HDAC1 relative activity (HDAC1; sheet S2b, log conc -4.88629) was 24.6308 and 24.7045 and 25.3305. The HDAC1 relative activity (HDAC1; sheet S2b, log conc -5.41477) was 53.4112 and 53.3483 and 54.8189, the HDAC1 relative activity (HDAC1; sheet S2b, log conc -5.94309) was 78.0321 and 77.9262 and 78.089 and the HDAC1 relative activity (HDAC1; sheet S2b, log conc -6.47756) was 94.813 and 93.3015 and 93.5028. The HDAC1 relative activity (HDAC1; sheet S2b, log conc -6.87615) was 93.4945 and 92.0736 and 92.8885, the HDAC1 relative activity (HDAC1; sheet S2d, log conc -3.30103) was 2.253 and 2.122 and 2.222 and the HDAC1 relative activity (HDAC1; sheet S2d, log conc -3.82945) was 6.603 and 6.6 and 6.7561. The HDAC1 relative activity (HDAC1; sheet S2d, log conc -4.35788) was 20.3513 and 20.4988 and 20.2352, the HDAC1 relative activity (HDAC1; sheet S2d, log conc -4.88629) was 44.8545 and 45.009 and 46.4019 and the HDAC1 relative activity (HDAC1; sheet S2d, log conc -5.41477) was 75.7737 and 78.1543 and 78.9575. The HDAC1 relative activity (HDAC1; sheet S2d, log conc -5.94309) was 89.586 and 92.205 and 92.7553, the HDAC1 relative activity (HDAC1; sheet S2d, log conc -6.47756) was 95.6344 and 96.1277 and 99.0353 and the HDAC1 relative activity (HDAC1; sheet S2d, log conc -6.87615) was 97.1294 and 100.284 and 101.314.
